Assay results published in PMC10222582, “Iminosugar-Based Nicotinamide Phosphoribosyltransferase (NAMPT) Inhibitors as Potential Anti-Pancreatic Cancer Agents” (Pharmaceutics, 2023).

Columns and labels:
[1] = target: T1, recombinant human NAMPT (Homo sapiens, UniProt P43490); experiment: NAMPT inhibition (fluorometric NMN detection); format: biochemical; details: NI = No inhibition at concentration < 1 mM, SD < 20%
T1 construct: purchased Abcam ab198090

[2] = test system: MiaPaCa-2 cells; experiment: Measurement of intracellular NAD+ levels (cycling enzymatic assay); format: cell-based, human; details: 24 h, 100 μM of inhibitor, SD < 20%
[3] = test system: MiaPaCa-2 cells; experiment: Cell viability assay (SRB); format: cell-based; details: Homo sapiens, MIA PaCa-2, MiaPaCa-2, 72 h
Protocol: Cell viability assay. MiaPaCa-2 cells (2 × 10^3/well) were plated in 96−well plates and left to adhere overnight. After 24 h the cells were treated with the inhibitors. Viability was determined after 72 h. The culture plates were fixed with cold 3% trichloroacetic acid at 4 °C for 30 min, washed with cold water and dried overnight. Finally, the plates were stained with 0.4% sulforodhamine B (SRB) in 1% acetic acid, washed four times with 1% acetic acid to remove unbound dye, dried overnight and then the stain was extracted with 10 mM Tris Base and the absorbance was read at 560 nm.
Then, the new compounds were tested in vitro for their anti-proliferative effect, using the human pancreatic cancer cell line MiaPaca-2 in the cytotoxicity assays (Table 1).

[4] = test system: MiaPaCa-2 cells; experiment: Measurement of intracellular NAD+ levels (cycling enzymatic assay); format: cell-based, human; parameters: dose or concentration left out as unconfirmed; details: after 24 h
Protocol: Measurement of intracellular NAD^+ levels. MiaPaCa-2 cells were plated at a density of 6.5 × 10^4 cells/well in 12−well plates. After 24 h, cells were treated (or not) with the different compounds and cultured for a further 24 h. Cells were harvested and lysed in 0.1 mL 0.6 M perchloric acid. Intracellular NAD^+ levels were determined with a cycling enzymatic assay, as previously reported.
In order to confirm that the above-mentioned anti-proliferative effect of the new NAMPT inhibitors were associated with NAD^+ depletion, we evaluated the intracellular NAD^+ concentration (iNAD^+) in MiaPaCa-2 cells for all the compounds (at a fixed […] concentration). After 24 h, only the iminosugar-based inhibitors 22 (77%) and 29 (79%), as well as the non-carbohydrate analogue 42 (61%), led to significant depletion; the other compounds exerted an effect in the 0–10% range.

[5] = NI (footnote 3) = No inhibition at concentration < 400 μM, SD < 20%

T1 sequence (P43490 whole entry): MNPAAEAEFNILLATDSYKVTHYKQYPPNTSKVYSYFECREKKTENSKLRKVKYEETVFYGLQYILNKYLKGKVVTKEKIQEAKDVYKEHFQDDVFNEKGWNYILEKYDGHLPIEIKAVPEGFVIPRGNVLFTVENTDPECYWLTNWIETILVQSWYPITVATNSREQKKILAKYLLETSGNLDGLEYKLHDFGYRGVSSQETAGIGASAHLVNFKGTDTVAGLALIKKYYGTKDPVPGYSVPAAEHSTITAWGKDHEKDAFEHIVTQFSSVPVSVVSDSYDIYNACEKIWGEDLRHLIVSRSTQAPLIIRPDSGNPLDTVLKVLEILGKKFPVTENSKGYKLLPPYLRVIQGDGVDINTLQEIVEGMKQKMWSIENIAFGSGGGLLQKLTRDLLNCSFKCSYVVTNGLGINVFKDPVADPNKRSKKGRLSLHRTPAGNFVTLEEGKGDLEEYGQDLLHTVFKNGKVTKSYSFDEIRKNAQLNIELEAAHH

SMILES	IC50 [1] [µM]	iNAD+ Depletion (%) [2] [%]	IC50 ([3]; NI (footnote 2) = No inhibition at concentration < 100 μM) [µM]	intracellular NAD+ depletion [4] [%]	IC50 [3, 5] [µM]
CC(C)(C)c1ccc(S(=O)(=O)N2CCC(CCCC(=O)Nc3ccc([C@@H]4N[C@H](CO)[C@@H](O)[C@H]4O)cc3)CC2)cc1 [Compound 21]	> 1000	0	> 400	–	–
O=C(CCCC1CCN(C(=O)c2ccccc2)CC1)Nc1ccc([C@@H]2N[C@H](CO)[C@@H](O)[C@H]2O)cc1 [Compound 22]	99.5	77	–	77	108
O=C(CCCCCNC(=O)c1ccccc1)Nc1ccc([C@@H]2N[C@H](CO)[C@@H](O)[C@H]2O)cc1 [Compound 23]	363	5	–	–	> 400
CC(C)(C)c1ccc(S(=O)(=O)NCc2ccc(C(=O)Nc3ccc([C@@H]4N[C@H](CO)[C@@H](O)[C@H]4O)cc3)cc2)cc1 [Compound 24]	549	9	–	–	> 400
O=C(NCc1ccc(C(=O)Nc2ccc([C@@H]3N[C@H](CO)[C@@H](O)[C@H]3O)cc2)cc1)c1ccccc1 [Compound 25]	> 1000	0	–	–	> 400
COC[C@H]1N[C@@H](c2ccc(NC(=O)CCCC3CCN(S(=O)(=O)c4ccc(C(C)(C)C)cc4)CC3)cc2)[C@H](OC)[C@@H]1OC [Compound 26]	139	10	–	–	37
COC[C@H]1N[C@@H](c2ccc(NC(=O)CCCC3CCN(C(=O)c4ccccc4)CC3)cc2)[C@H](OC)[C@@H]1OC [Compound 27]	> 1000	0	–	–	539
COC[C@H]1N[C@@H](c2ccc(NC(=O)CCCCCNC(=O)c3ccccc3)cc2)[C@H](OC)[C@@H]1OC [Compound 28]	603	3	–	–	> 400
COC[C@H]1N[C@@H](c2ccc(NC(=O)c3ccc(CNS(=O)(=O)c4ccc(C(C)(C)C)cc4)cc3)cc2)[C@H](OC)[C@@H]1OC [Compound 29]	63	79	–	79	32
COC[C@H]1N[C@@H](c2ccc(NC(=O)c3ccc(CNC(=O)c4ccccc4)cc3)cc2)[C@H](OC)[C@@H]1OC [Compound 30]	> 1000	0	–	–	920
CC(C)(C)c1ccc(S(=O)(=O)N2CCC(CCCC(=O)Nc3ccccc3)CC2)cc1 [Compound 34]	357	6	–	–	46.6
O=C(CCCC1CCN(C(=O)c2ccccc2)CC1)Nc1ccccc1 [Compound 35]	> 1000	4	–	–	91.4
O=C(CCCCCNC(=O)c1ccccc1)Nc1ccccc1 [Compound 38]	113	0	–	–	340
CC(C)(C)c1ccc(S(=O)(=O)NCc2ccc(C(=O)Nc3ccccc3)cc2)cc1 [Compound 42]	43	61	–	61	> 400
O=C(NCc1ccc(C(=O)Nc2ccccc2)cc1)c1ccccc1 [Compound 43]	283	1	–	–	698
O=C(/C=C/c1cccnc1)NCCCCC1CCN(C(=O)c2ccccc2)CC1 [FK866, reference compound]	–	90	–	–	0.0024
